According to patent US7666611B2, “Lysophosphatidic acid receptor” (Japan Science and Technology Agency, priority 2003, dated 2010):
Entries after “also recorded” stand apart in the source; their conditions may differ.

Assays:
[1] = test system: ATP receptors endogenously expressed in CHO cells; test: ATP positive control, intracellular calcium change in CHO clones; assay type: cell-based; details: ATP 1 μM, 10 μM and 100 μM
Method: Over 200 lipids (Lipid Library; BIOMOL) and nucleotides were screened using CHO clones of respective receptors by monitoring changes in intracellular calcium concentrations. As positive controls for the screenings, ATP with concentrations of 1 μM, 10 μM and 100 μM were used.
CHO clones of four individual receptors such as GPR34, p2y5, p2y9 and p2y10 were seeded respectively in three 96-well plates at a density of 4×10^4 cells/well. On the following day, cells were loaded with 4 μM of Fluo-3 (calcium indicator) and incubated at 37° C. for 1 hour for incorporation of Fluo-3. Cells were then reacted with individual lipids (1 to 10 μM) contained in the Lipid Library of BIOMOL comprising over 200 kinds of lipid molecules and 17 nucleotides (1 to 100 μM) such as ATP, then time course kinetics of intracellular calcium mobilization was monitored with FLEXstation of Molecular Devices.
This enabled to confirm the relevance of the experiment.

[2] = target: T1, p2y9 (Homo sapiens, UniProt Q99677); test: Intracellular calcium increase in four CHO clones stably expressing p2y9 (Fura-2); assay type: cell-based; details: p2y9 clones vs negative control, FIG. 15
T1 construct: expressed in transfected cells
Method: Then the investigation with respect to CHO clone has been carried out. Experiment of calcium incorporation was conducted in four independent CHO clones, #01, #09, #15 and #20, stably expressing p2y9. […] As a negative control, CHO cells which acquired neomycin resistance by transfected only with pCXN2.1 vector were used.
Four types of CHO clones, #01, #09, #15 and #20, stably expressing p2y9 were incubated for 24 hours in the medium of Ham's F-12 supplemented with 0.1% BSA in replacement of Ham's F-12 supplemented with 10% fetal bovine serum. The cells were then suspended in HEPES-Tyrode's buffer (140 mM NaCl, 2.7 mM KCl, 1 mM CaCl2, 12 mM NaHCO3, 5.6 mM D-glucose, 0.49 mM MgCl2, 0.37 mM NaH2PO4, and 25 mM HEPES-NaOH (pH 7.4)) containing 3 μM Fura-2 (calcium indicator) and 0.01% Cremophor EL. Cells were incubated at 37° C. for 1 hour for incorporation of Fura-2. Cells were then resuspended in HEPES-Tyrode's buffer in order to achieve a cell density of 1×10^6 cells/ml. The changes in intracellular concentrations with addition of various concentrations of LPAs were monitored by using CAF-100 spectrofluorometer (Jasco, Tokyo, Japan). As a negative control, CHO cells which acquired neomycin resistance by transfected only with pCXN2.1 vector were used.

T1 sequence (Q99677 whole entry): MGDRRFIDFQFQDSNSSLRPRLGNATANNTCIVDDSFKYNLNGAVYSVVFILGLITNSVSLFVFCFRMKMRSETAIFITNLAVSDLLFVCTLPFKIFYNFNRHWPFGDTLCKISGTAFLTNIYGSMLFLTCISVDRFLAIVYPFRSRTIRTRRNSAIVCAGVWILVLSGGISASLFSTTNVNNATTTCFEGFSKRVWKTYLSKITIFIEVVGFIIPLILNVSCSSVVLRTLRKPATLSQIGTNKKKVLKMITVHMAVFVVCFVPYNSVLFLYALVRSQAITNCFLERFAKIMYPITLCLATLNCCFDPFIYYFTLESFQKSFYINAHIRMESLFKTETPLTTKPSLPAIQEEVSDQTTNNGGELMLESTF

Nc1ncnc2c1ncn2[C@@H]1O[C@H](COP(=O)(O)OP(=O)(O)OP(=O)(O)O)[C@@H](O)[C@H]1O [ATP]
change in intracellular calcium concentration [1]: remarkable change in intracellular calcium concentration beyond the measurable range; also recorded: changes in calcium concentration beyond the measurable range
increase in intracellular calcium concentration ([2]; ATP 10 μM): no significant difference; also recorded: no significant changes

thrombin
increase in intracellular calcium concentration ([2]; thrombin 0.1 NIH units/ml): no significant difference; also recorded: no significant changes

platelet activating factor [PAF]
increase in intracellular calcium concentration ([2]; PAF 1 μM): no significant difference; also recorded: no significant changes
